Test results from patent US6703536B2, “Disposable absorbent article having a skin care composition containing an enzyme inhibitor” (The Procter & Gamble Company, priority 1998, dated 2004).
Where a name gives a salt, the structure may show the parent alone. Read-outs that look alike come from different tables or passages of the source. Each block holds one molecule with its values, some of them ahead of it. Square brackets hold non-standard residues; d marks the D form. Peptide text beside a SMILES is read from it. * marks the point of attachment. Sta = CC(C)C[C@H](N)[C@@H](O)CC(=O)O; Isovaleryl = CC(C)CC(=O)*

Columns and labels:
LAP activity in feces = assay: Fecal LAP Activity (Specific Fecal Enzyme Method); format: biochemical; conditions: pooled infant fecal suspension, pH 7.2, 25° C.; read-out: IC50 Specific Fecal Enzyme Methods LAP
Description: The following is a general description of a method for obtaining a sample of feces suitable for use in Fecal Protease Methods. However, one skilled in the art will be able to adapt the method to obtain appropriate samples of feces suitable for use in any of the Specific Fecal Protease Methods listed below (i.e., lipase, urease, and amylase) without undue experimentation.
(§1) Pooled infant feces (at least five different samples) are collected in a manner to keep them free of urine and contamination and mixed with water to obtain a weight by weight (w/w) mixture (e.g., 1:50 w/w). This mixture is then mixed thoroughly to obtain a homogeneous suspension by homogenization or sonication. […] (Also, to ensure complete linearity the final absorbance should never exceed 1.5 OD405 units). If the activity of the pooled infant feces is outside this range, it is not possible to accurately determine IC50 values for putative protease inhibitors. However, the range of enzyme activity may be adjusted by increasing or decreasing the dilution factor accordingly for each enzyme. If this is not possible, a different group of subjects should be used to obtain the sample pool.
To test the efficacy of protease inhibitors against LAP activity in feces, inhibitor and LAP buffer (50 mM sodium phosphate, pH 7.2) are added in a cuvette to obtain a final volume of 0.95 mL. To this mixture, 0.03 mL of substrate (6 mM L-Leucine-p-nitroanilide) is added to the cuvette. The cuvette is mixed by inversion and incubated at 25° C. for 5 minutes. A volume of 0.02 mL of fecal suspension is added to the cuvette, mixed and the absorbance at 405 nm minus the absorbance at 490 nm measured over 5 minutes at 25° C. The rate of substrate cleavage in the presence of inhibitor (vi) is the slope of a plot relating the excess absorbance (i.e., the absorbance at 405 nm minus the absorbance at 490 nm) versus time. The same procedure is repeated without the putative inhibitor. The rate of substrate cleavage in the absence of inhibitor (v) is the slope of a plot relating the excess absorbance versus time. The rates, vi and v, and the inhibitor concentration [I] are used to calculate IC50 according to the equation expressed above.

purified chymotrypsin = target: T1, purified chymotrypsin (Homo sapiens, UniProt P17538); assay: Purified Chymotrypsin Activity (Purified Enzyme Method); format: biochemical
T1 construct: purchased Sigma, St. Louis, Mo; C8946
Experimental: The IC50 is calculated according to the equation IC50=[I]/[(v/vi)−1], where [I] is the inhibitor concentration tested, v is the rate of substrate cleavage in the absence of the inhibitor and vi is the rate of substrate cleavage in the presence of the inhibitor. As described further below, the IC50 of an enzyme inhibitor according to the invention may be measured by a Purified Enzyme method, by a Specific Fecal Enzyme method or by a General Fecal Enzymes method.
Standard in vitro assays for enzyme activity, and inhibition of enzyme activity, are well known. The reagents used to conduct these tests are generally commercially available. In general, a simple system comprises an enzyme-specific substrate which, when hydrolyzed by the enzyme, produces a colored product. The activity of the enzyme is measured spectrophotometrically as the degree of development of the colored product (i.e., the rate of color change) over a predetermined time period. […] The following are exemplary methods that may be utilized to determine the inhibitory activity of enzyme inhibitors against A) purified enzymes known to exist in feces, B) specific enzyme activity in the feces itself and C) general enzyme activity in the feces itself. These methods are not intended to be limiting, however, as other methods, other substrates, other inhibitors and the like may be used to test activity against a wide variety of fecal enzymes, as known to one skilled in the art.
For each of the following exemplary Purified Enzyme Methods, Specific Fecal Enzyme Methods, General Fecal Enzymes Method, Purified Lipase activity assay, Fecal Lipase activity assay, Purified Urease activity assay, Fecal Urease activity assay, Purified Amylase activity assay, and Fecal Amylase activity assay, the IC50 for each inhibitor tested may be calculated according to the following equation: […]
where [I] is the inhibitor concentration tested, v is the rate of substrate cleavage in the absence of inhibitor and vi is the rate of substrate cleavage in the presence of inhibitor.
In the methods, v and vi are measured as the change in absorbance (optical density, OD) at a given wavelength/time (e.g., minutes).
The cuvette is incubated at 25° C. for 10 minutes. […] The same procedure is repeated without the putative inhibitor. […] The rates, vi and v, and the inhibitor concentration [I] are used to calculate IC50 according to the equation expressed above.

[1] = target: protease activity in feces; assay: General Fecal Enzymes Method (casein-resorufin cleavage); format: biochemical, infant; conditions: fecal suspension, casein-resorufin substrate, pH 7.8, 37° C. for 60 minutes
Description: as §1
The general method described above for obtaining a sample of feces suitable for use in Specific Fecal Enzyme Methods can be easily adapted by one skilled in the art to obtain appropriate samples of feces suitable for use in the General Fecal Enzymes Method listed below without undue experimentation.
To test the efficacy of protease inhibitors against the protease activity in feces, 50 μL of inhibitor and 50 μL of fecal suspension are added to a 1.5 mL microcentrifuge tube. The microcentrifuge tube is mixed by inversion and incubated at 25° C. for 45 minutes. Then, 50 μL of protease buffer (200 mM TRIS buffer containing 20 mM CaCl2, pH 7.8) is added to the microcentrifuge tube. The microcentrifuge tube is again mixed by inversion and incubated at 25° C. for 45 minutes. […] The microcentrifuge tube is again mixed by inversion and incubated at 37° C. for 60 minutes for the substrate cleavage reaction to take place. Then, 480 μL of trichloroacetic acid (5% w/v) is added to stop the reaction and precipitate any unreacted casein-resorufin. The microcentrifuge tube is mixed by inversion incubated at 37° C. for 15 minutes. […] Then, 400 μL of the supernatant is added to 600 μL of assay buffer (0.5 M TRIS, pH 8.8) in a cuvette. […] The same procedure is repeated without the putative inhibitor. […] Before the start of the reaction, A and Ai are nearly zero. […] The rates, vi and v, and the inhibitor concentration [I] are used to calculate IC50 according to the equation expressed above.

[2] = purified chymotrypsin, N-Succ-Ala-Ala-Pro-Phe-p-nitroanilide, pH 7.6, 25° C., read-out: IC50 Purified Enzyme Methods Chymotryp.

T1 sequence (P17538 19-263): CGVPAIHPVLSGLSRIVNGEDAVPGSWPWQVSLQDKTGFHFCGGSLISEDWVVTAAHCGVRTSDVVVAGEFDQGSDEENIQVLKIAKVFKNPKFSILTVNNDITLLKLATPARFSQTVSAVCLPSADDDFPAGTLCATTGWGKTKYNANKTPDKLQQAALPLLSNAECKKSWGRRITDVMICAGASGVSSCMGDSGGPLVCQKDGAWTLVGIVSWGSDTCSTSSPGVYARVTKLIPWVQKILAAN

Molecule: Cc1ccc(S(=O)(=O)N[C@@H](CCCCN)C(=O)CCl)cc1 [TLCK, L-1-chloro-3-[4-tosylamido]-7-amino-2-heptanone-HCl]
IC50 (LAP activity in feces): > 500 µM
IC50 (purified chymotrypsin): > 500 µM

IC50 (LAP activity in feces): > 20 µM
IC50 (purified chymotrypsin; [2]): 1 µM
Molecule: Aprotinin

IC50 (LAP activity in feces): > 500 µM
IC50 (purified chymotrypsin; [2]): > 500 µM
Molecule: N=C(N)c1ccc(N)cc1 [p-Amino-benzamidine]

Molecule: CC(=O)N[C@@H](CC(C)C)C(=O)N[C@@H](CC(C)C)C(=O)N[C@H](C=O)CCCNC(=N)N [Leupeptin]
IC50 [1]: > 320 µM
IC50 (LAP activity in feces): > 500 µM
IC50 (purified chymotrypsin; [2]): > 500 µM

Molecule: CC(C)C[C@H](NC(=O)[C@@H](NC(=O)N[C@@H](Cc1ccccc1)C(=O)O)[C@@H]1CCN=C(N)N1)C(=O)N[C@H](C=O)Cc1ccccc1 [Chymostatin]
IC50 [1]: 64 µM
IC50 (LAP activity in feces): > 500 µM
IC50 (purified chymotrypsin): < 0.12 µM

Molecule: CC(C)CC(=O)N[C@H](C(=O)N[C@H](C(=O)N[C@@H](CC(C)C)[C@@H](O)CC(=O)N[C@@H](C)C(=O)N[C@@H](CC(C)C)[C@@H](O)CC(=O)O)C(C)C)C(C)C [Pepstatin A] (Isovaleryl-VV[Sta]A[Sta]-OH)
IC50 [1]: > 32 µM
IC50 (LAP activity in feces): > 500 µM
IC50 (purified chymotrypsin; [2]): 4.9 µM

IC50 (LAP activity in feces): > 300 µM
IC50 (purified chymotrypsin; [2]): > 500 µM
Molecule: CC1(C)[C@@H](O[C@H]2O[C@H](C(=O)O)[C@@H](O)[C@H](O)[C@H]2O[C@@H]2O[C@H](C(=O)O)[C@@H](O)[C@H](O)[C@H]2O)CC[C@]2(C)[C@H]3C(=O)C=C4[C@@H]5C[C@@](C)(C(=O)O)CC[C@]5(C)CC[C@@]4(C)[C@]3(C)CC[C@@H]12 [Glycyrrhizic Acid]

Molecule: N=C(N)c1ccc(OCCCCCCOc2ccc(C(=N)N)cc2)cc1 [Hexamidine diisethionate]
IC50 (LAP activity in feces): 130 µM
IC50 (purified chymotrypsin; [2]): > 1000 µM

IC50 [1]: 4.9 µM
IC50 (LAP activity in feces): > 20 µM
IC50 (purified chymotrypsin; [2]): 0.026 µM
B1: Soybean trypsin inhibitor: plant-derived trypsin inhibitor (protein, UniProt P01070 25-205, looked up)
Trypsin inhibitor A: DFVLDNEGNPLENGGTYYILSDITAFGGIRAAPTGNERCPLTVVQSRNELDKGIGTIISSPYRIRFIAEGHPLSLKFDSFAVIMLCVGIPTEWSVVEDLPEGPAVKIGENKDAMDGWFRLERVSDDEFNNYKLVFCPQQAEDDKCGDIGISIDHDDGTRRLVVSKNKPLVVQFQKLDKESL
